Data on three compounds can be found in patent publication US12479847B2 (DANA-FARBER CANCER INSTITUTE, INC., priority 2019, dated 2025).

Holding throughout (assay): KINOMEscan (ScanMAX) kinase profiling
What all share (type): binding

Test [1] has as its target T1, panel of 468 kinases (Homo sapiens, UniProt Q9UBF8).
T1 construct: purchased KINOMEscan (ScanMAX) service
Particulars: PIK4CB; 1 μM; read-out: % control.

Test [2] has as its target T2, panel of 468 kinases (Homo sapiens, UniProt P00533, T790M).
T2 construct: purchased KINOMEscan (ScanMAX) service
Particulars: EGFR(T790M); 1 μM; read-out: % control.

For test [3], the target named is T3, panel of 468 kinases (Homo sapiens, UniProt P10721).
T3 construct: purchased KINOMEscan (ScanMAX) service
The conditions noted are these: 1 μM, read-out: % control.

Test [4] concerns the target T4, panel of 468 kinases (Homo sapiens, UniProt Q96PY6).
T4 construct: purchased KINOMEscan (ScanMAX) service
T4 sequence (Q96PY6 1-1258): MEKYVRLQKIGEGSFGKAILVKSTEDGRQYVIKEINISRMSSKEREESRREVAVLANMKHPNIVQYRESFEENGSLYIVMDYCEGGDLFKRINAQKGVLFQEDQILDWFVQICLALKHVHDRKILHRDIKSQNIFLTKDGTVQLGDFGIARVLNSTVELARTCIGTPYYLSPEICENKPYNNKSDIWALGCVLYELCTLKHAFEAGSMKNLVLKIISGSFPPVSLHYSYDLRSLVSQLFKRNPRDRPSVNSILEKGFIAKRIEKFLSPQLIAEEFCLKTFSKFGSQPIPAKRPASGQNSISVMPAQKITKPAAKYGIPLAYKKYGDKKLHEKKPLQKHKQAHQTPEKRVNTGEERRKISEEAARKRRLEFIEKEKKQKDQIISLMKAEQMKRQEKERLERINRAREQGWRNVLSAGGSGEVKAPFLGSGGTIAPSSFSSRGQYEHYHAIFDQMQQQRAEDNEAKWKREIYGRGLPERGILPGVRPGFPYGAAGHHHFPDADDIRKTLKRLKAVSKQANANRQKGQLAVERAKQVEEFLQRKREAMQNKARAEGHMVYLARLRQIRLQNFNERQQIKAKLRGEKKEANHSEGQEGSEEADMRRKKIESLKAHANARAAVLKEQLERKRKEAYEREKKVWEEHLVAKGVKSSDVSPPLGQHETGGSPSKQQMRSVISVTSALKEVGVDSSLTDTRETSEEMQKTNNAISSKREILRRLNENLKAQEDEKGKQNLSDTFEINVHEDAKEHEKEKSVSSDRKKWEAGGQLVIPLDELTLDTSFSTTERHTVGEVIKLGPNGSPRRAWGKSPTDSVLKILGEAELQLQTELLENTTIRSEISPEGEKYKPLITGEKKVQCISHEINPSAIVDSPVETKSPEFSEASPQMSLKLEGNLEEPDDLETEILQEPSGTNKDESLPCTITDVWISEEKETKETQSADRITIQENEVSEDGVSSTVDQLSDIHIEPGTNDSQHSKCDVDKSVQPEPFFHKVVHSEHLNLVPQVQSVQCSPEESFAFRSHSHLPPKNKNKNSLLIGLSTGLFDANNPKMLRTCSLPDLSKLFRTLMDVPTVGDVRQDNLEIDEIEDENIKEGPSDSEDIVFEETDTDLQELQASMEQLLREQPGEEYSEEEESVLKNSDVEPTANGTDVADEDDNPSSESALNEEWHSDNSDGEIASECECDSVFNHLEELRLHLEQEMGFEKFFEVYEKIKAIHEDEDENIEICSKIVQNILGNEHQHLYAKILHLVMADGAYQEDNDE
Particulars: NEK1; 1 μM; read-out: % control.

In test [5] the target is T5, panel of 468 kinases (Homo sapiens, UniProt Q08881).
T5 construct: purchased KINOMEscan (ScanMAX) service
T5 sequence (Q08881 1-620): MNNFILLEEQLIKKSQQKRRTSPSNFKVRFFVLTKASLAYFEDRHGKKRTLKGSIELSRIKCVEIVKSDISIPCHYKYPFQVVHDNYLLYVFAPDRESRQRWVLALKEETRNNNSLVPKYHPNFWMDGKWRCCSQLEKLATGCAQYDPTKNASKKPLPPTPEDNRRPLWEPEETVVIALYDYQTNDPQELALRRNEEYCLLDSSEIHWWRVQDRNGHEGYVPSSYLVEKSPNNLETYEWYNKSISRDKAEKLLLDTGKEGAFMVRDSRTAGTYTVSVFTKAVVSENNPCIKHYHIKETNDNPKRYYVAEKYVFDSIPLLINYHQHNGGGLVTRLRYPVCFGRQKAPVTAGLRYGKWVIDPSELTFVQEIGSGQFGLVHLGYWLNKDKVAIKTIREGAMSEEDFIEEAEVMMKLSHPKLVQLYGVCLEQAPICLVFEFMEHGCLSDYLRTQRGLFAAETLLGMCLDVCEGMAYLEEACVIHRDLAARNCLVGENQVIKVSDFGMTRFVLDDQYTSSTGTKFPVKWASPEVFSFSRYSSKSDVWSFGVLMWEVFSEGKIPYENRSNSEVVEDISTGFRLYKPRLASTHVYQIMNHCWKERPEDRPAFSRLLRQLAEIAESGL
The conditions noted are these: ITK; 1 μM; read-out: % control.

Where two headings read alike, the source gives them in different places.

T3 sequence (P10721 26-976): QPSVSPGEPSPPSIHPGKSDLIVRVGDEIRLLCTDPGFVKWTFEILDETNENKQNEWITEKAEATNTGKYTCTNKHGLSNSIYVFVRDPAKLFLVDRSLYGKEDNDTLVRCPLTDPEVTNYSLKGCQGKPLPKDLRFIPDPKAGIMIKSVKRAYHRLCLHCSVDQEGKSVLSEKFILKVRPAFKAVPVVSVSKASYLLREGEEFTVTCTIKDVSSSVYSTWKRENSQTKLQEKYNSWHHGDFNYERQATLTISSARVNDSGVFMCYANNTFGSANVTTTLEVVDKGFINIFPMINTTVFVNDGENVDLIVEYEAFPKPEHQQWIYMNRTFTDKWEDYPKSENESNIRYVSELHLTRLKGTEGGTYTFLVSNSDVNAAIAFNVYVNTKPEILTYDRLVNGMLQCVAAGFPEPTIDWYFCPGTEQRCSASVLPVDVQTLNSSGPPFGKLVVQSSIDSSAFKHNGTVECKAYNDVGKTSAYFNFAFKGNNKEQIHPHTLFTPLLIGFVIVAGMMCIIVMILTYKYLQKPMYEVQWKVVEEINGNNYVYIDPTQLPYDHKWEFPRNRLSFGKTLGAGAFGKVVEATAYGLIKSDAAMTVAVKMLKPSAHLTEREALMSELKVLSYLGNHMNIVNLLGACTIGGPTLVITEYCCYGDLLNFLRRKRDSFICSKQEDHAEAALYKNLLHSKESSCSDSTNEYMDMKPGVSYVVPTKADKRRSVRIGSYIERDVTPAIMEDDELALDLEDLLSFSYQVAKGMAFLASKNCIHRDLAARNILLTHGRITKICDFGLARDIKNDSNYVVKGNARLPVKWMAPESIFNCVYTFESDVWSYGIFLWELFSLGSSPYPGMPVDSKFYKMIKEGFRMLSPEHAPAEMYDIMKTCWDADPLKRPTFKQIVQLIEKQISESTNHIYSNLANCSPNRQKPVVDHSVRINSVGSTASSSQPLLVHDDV
T1 sequence (Q9UBF8 whole entry): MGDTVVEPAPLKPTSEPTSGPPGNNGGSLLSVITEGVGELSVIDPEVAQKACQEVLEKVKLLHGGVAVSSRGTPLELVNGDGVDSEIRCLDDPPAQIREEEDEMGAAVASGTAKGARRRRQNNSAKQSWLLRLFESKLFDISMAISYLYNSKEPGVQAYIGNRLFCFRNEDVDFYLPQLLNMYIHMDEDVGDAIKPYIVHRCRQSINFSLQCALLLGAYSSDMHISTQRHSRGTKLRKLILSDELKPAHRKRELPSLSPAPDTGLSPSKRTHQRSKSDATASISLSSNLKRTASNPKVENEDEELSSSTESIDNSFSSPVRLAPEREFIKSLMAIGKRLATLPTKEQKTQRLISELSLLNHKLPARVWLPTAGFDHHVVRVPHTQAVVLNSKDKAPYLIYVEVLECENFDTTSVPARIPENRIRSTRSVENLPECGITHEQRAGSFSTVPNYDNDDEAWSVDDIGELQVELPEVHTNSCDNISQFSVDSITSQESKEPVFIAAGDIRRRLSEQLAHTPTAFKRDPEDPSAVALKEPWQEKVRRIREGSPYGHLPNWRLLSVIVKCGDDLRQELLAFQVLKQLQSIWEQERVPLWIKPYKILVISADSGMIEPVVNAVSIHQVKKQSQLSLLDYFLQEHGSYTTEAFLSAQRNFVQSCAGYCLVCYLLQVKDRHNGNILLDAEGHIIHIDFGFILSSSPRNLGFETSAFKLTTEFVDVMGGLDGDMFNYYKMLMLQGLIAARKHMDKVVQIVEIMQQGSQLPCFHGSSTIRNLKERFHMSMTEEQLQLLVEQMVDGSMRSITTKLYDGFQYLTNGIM
T2 sequence (P00533 25-1210 T790M): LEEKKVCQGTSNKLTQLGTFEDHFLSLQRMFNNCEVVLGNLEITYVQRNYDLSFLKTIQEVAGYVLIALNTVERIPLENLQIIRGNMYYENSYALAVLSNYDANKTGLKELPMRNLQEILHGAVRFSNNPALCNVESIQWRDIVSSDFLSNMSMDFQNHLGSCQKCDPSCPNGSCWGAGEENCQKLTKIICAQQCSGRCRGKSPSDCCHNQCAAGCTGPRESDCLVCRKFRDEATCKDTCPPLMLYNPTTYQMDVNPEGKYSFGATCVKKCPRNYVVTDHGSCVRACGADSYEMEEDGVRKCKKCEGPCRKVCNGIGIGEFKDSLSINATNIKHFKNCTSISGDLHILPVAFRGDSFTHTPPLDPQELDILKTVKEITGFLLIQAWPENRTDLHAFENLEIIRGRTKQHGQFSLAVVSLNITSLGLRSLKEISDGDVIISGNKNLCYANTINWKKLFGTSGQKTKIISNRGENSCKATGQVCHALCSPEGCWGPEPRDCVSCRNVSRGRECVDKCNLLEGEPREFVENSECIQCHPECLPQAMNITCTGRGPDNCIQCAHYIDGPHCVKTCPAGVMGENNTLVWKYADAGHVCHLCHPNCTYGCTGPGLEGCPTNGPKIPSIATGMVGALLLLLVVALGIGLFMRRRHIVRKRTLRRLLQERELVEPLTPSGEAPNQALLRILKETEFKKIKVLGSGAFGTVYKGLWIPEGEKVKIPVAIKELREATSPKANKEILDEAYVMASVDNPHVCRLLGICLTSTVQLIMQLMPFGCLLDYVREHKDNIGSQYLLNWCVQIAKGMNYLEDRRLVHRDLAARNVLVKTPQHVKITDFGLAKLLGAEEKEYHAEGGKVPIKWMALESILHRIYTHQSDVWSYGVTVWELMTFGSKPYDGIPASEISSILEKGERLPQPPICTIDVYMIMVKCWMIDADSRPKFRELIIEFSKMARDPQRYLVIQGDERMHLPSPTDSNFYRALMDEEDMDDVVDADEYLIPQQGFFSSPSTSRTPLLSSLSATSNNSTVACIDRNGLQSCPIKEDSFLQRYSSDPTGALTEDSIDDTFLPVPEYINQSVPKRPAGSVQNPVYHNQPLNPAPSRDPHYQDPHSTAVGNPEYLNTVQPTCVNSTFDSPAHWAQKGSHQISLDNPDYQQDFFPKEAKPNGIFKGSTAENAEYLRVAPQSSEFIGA

In the case of `CNc1nc(Nc2ccc(S(=O)(=O)N3CCC(N4CCOCC4)CC3)cc2OC)nc2[nH]cc(Cl)c12` [Compound 12, 5-chloro-N2-(2-methoxy-4-((4-morpholinopiperidin-1-yl)sulfonyl)phenyl)-N4-methyl-7H-pyrrolo[2,3-d]pyrimidine-2,4-diamine], the remaining binding at 1 µM in test [1] came out at 100%; in test [2], 75%; in test [3] (KIT-autoinhibited), 95%; in test [3] (KIT), 100%; in test [4], 100%; in test [5] it was 92%.

With `CNc1nc(Nc2ccc(C(=O)N3CCC(N4CCOCC4)CC3)c3c2OCO3)nc2[nH]cc(Cl)c12` [Compound 75, (7-((5-chloro-4-(methylamino)-7H-pyrrolo[2,3-d]pyrimidin-2-yl)amino)benzo[d][1,3]dioxol-4-yl)(4-morpholinopiperidin-1-yl)methanone], the remaining binding at 1 µM in test [1] came out at 100%; in test [2] it was 63%; in test [3] (KIT-autoinhibited), 68%; in test [3] (KIT) it was 65%; in test [4] it was 88%; in test [5] it was 100%.

On to `CNc1nc(Nc2ccc(P3(=O)CCN(C4CCOCC4)CC3)cc2OC)nc2[nH]cc(Cl)c12` [Compound 77, 4-(4-((5-chloro-4-(methylamino)-7H-pyrrolo[2,3-d]pyrimidin-2-yl)amino)-3-methoxyphenyl)-1-(tetrahydro-2H-pyran-4-yl)-1,4-azaphosphinane 4-oxide], for which the remaining binding at 1 µM in test [1] worked out at 100%; in test [2], 55%; in test [3] (KIT-autoinhibited) it was 93%; in test [3] (KIT) it was 99%; in test [4], 98%; in test [5], 97%.
